Data taken from EP0521435A2, “Method to promote the production of secondary metabolites in plant cell cultures” (B.A.T. Cigarettenfabriken GmbH, priority 1991, dated 1993).

Columns and labels:
[1] = tested on: Zellkultur von Lactuca sativa; test: Elicitation of lettucenin A in cell culture; assay type: cell-based; details: 250 µmol/l; extraction 6 days later; not detectable in control culture
Procedure: (§1) B. Glukoseester, Aminosäure- oder andere Kohlenhydrataddukte eingesetzt werden.
Eine Zellkultur von Lactuca sativa wird 24 Stunden nach dem Überimpfen in LS-Medium mit 3-Hydroxyjasmonsäure zu einer Endkonzentration von 250 µmol/l versetzt. Die Extraktion mit Methanol erfolgt 6 Tage später. Die elicitierten Kulturen enthalten das Custonolid Lettucenin A in einer Konzentration von ca. 30 mg/I. In den Extrakten einer Kontrollkultur ist Lettucenin A nicht nachweisbar.

[2] = tested on: Kultur von Ruta chalepensis; test: Elicitation of rutacridone in cell culture; assay type: cell-based; details: 40 µmol/l; cultivated 5 further days; methanol extract
Source text: as §1
Eine 2 Tage alte Kultur von Ruta chalepensis (4x-Medium) wird mit Jasmonatglukosid zu einer Endkonzentration von 40 µmol/l versetzt, für 5 Tage weiterkultiviert und mit Methanol extrahiert. Der Extrakt zeigt einen 18-fachen Rutacridon-Gehalt gegenüber der Kontrolle.

[3] = tested on: Kultur von Rubia tinctorum; test: Elicitation of anthraquinones (alizarin) in cell culture; assay type: cell-based; details: added after 4 days, harvested after 7 days; concentration not given
Source text: as §1
Eine Kultur von Rubia tinctorum wird in LS-Medium kultiviert. Nach 4 Tagen werden der Kultur 2',3'-Dihydrojasmonat zugesetzt. Nach 7 Tagen wird die Kultur geerntet und der Anthrachinon-Gehalt bestimmt. Der Zuwachs an Alizarin beträgt das ca. 40-fache gegenüber der Kontrolle.

[4] = tested on: Linum hirsutum; test: Elicitation of lignans; assay type: cell-based; details: versus control; concentration of elicitor not given
Source text: (§2) Weitere Beispiele sind: Digitalis purpurea: Cardenoloide, die unter dem Einfluß von Jasmonat gegenüber der Kontrolle eine 2-fach gesteigerte Konzentration erreichen; Linum hirsutum: Lignane, die 2,5-fach gesteigert sind; Gossypium herbaceum: Gossipol, 10-fach gesteigert gegenüber der Kontrolle; isolierte Wurzelkulturen von Hyoscyamus alba: Hyoscyamin/Scopolamin: stark parasympatholytische bzw. zentraldämpfende, medizinisch wertvolle Alkaloide, 12-fache Steigerung gegenüber der Kontrolle; Zellkulturen von Colchicum autumnale, die das Gichtmittel Colchicin produzieren, 8-fache Steigerung gegenüber der Kontrolle; Zellkulturen von Cephaelis ipecacuanha, die das arzneilich genutzte Emetin produzieren, das bei Keuchhusten und Bronchialasthma sowie als erbrechungsförderndes Mittel Anwendung findet, 7,5-fache Steigerung gegenüber der Kontrolle; Zellkulturen von Cinchona succirubra bzw. Cinchona ledgeriana, die medizinisch als Antiarhythmikum bzw. als Chemotherapeutikum (Malaria) eingesetzt werden, Steigerung 14-fach; Zellkulturen von Rauwolfia serpentina, die die therapeutisch genutzten Indolalkaloide Reserpin (blutdrucksenkend, sedierend), Serpentin (blutdrucksenkend), Ajmalin (bei Herzrhythmusstörungen), Ajmalicin (Gehirn-durchblutungsfördernd), Yohimbin (durchblutungsfördernd) produzieren.
as §1

[5] = tested on: Zellkulturen von Cinchona succirubra bzw. Cinchona ledgeriana; test: Elicitation of secondary metabolites in Cinchona cell cultures; assay type: cell-based; details: product not named in b24 (Chinidin und Chinin according to b23); concentration of elicitor not given
Source text: Beispiele für Sekundärstoffe, die durch das erfindungsgemäße Verfahren produziert werden können, sind: Atropin und Scopolamin, isoliert aus Hyoscyamus- und Datura-Wurzelkulturen, Colchicin aus Herbstzeitlose, Emetin aus Zell- und Wurzelkulturen der Brechwurz, Codein und Morphin aus Zellkulturen des Schlafmohns, Chinidin und Chinin aus Zellkulturen von Cinchona succirubra bzw. Cinchona ledgeriana, Ajmalin, Rescinamin, Reserpin aus Zellkulturen von Rauwolfia-Arten. Diese Substanzen werden arzneilich eingesetzt. Insbesondere sind also die Stoffgruppen der Indolalkaloide, der Isochinolinalkaloide, der Lignane und Isoprenoide zu nennen. […]

[6] = tested on: isolierte Wurzelkulturen von Hyoscyamus alba; assay type: cell-based; details: isolated root cultures; concentration of elicitor not given
Source text: as §2, §1

[7] = tested on: Zellkulturen von Cephaelis ipecacuanha; assay type: cell-based; details: concentration of elicitor not given
Source text: as §2, §1

[8] = tested on: Gossypium herbaceum; assay type: cell-based; details: concentration of elicitor not given
Source text: as §2, §1

[9] = tested on: Digitalis purpurea; assay type: cell-based; details: concentration of elicitor not given
Source text: as §2, §1

[10] = tested on: Zellkulturen von Colchicum autumnale; assay type: cell-based; details: concentration of elicitor not given
Source text: as §2, §1

[11] = tested on: Berberinbrückenenzym; test: mRNA hybridisation with a probe against the berberine bridge enzyme after elicitation; assay type: cell-based, Eschscholtzia californica; details: elicited as in Beispiel 1
Source text: Zellkulturen von Eschscholtzia californica werden - wie in Beispiel 1 beschrieben - mit Methyljasmonat elicitiert. Nach Zugabe des Jasmonats werden im Abstand von je 1 Stunde Aliquots entnommen und die m-RNA extrahiert. Die m-RNA wird mit einer Probe gegen das Berberinbrückenenzym, ein Schlüsselenzym des Benzophenanthridin-Stoffwechsels, hybridisiert. […] Die so induzierte m-RNA ist ein Indiz für die Genaktivierung der an der Elicitierung und an der Alkaloidbiosynthese beteiligten Enzyme. Die Verbindungen der Formel (I) sind demnach in der Lage, reprimierte Sekundärstoffgene zu aktivieren.

[12] = tested on: Kultur von Glycine max; test: cells; details: 144 h, read-out: höhere Konzentration an Daidcein- und Genistein-Glycosiden
Procedure: Die Zellkultur wird in Flüssigmedium kultiviert und kann entweder in entsprechenden Kulturgefäßen oder in Fermentern herangezogen werden. Nach einer Anwachsphase von 2 bis 10 Tagen wird dem Medium eine in Ethanol gelöste Verbindung der Formel (I) zugesetzt.
Eine Kultur von Glycine max wird mit 330 g Frischgewicht in 1 Liter 4x-Medium (Gamborg, Miller, Ojima, Experiment Research 50, 151 - 158 (1968)), 2,4-D 2 mg/I, NES 0,5 mg/I, IES 0,5 mg/I, Kinetin 0,2 mg/I versetzt. 3 Tage später wird Methyljasmonat zu einer Endkonzentration von 250 umol/1 zugesetzt. Nach einer Kultivierungsperiode von 6 Tagen wird die Kultur mit Methanol extrahiert (50 g Frischgewicht/200 ml Methanol; 2 Stunden, 60 ° C).

[13] = tested on: Zellsuspensionskultur von Eschscholtzia californica; details: 20 umol/1; cultivated 5 further days; per litre culture medium
Source text: (§3) Die Zellkultur wird in Flüssigmedium kultiviert und kann entweder in entsprechenden Kulturgefäßen oder in Fermentern herangezogen werden. Nach einer Anwachsphase von 2 bis 10 Tagen wird dem Medium eine in Ethanol gelöste Verbindung der Formel (I) zugesetzt. […] Nach Bildung der maximalen Konzentration an Sekundärstoffen wird der Versuch durch Separierung der Zellen vom Medium abgebrochen und die Sekundärstoffe werden anschließend nach bekannten Verfahren aus dem Zellüberstand oder den Zellen isoliert.
(§4) Einer Zellsuspensionskultur von Eschscholtzia californica, die in 1 Liter LS-Nährmedium (Linsmaier, E. M., Skoog, F., Physiol. Plant 18, 100 (1965)) herangewachsen ist und deren Frischgewicht 200 g beträgt, wird Methyljasmonat zu einer Endkonzentration von 20 umol/1 zugesetzt. Die Kultur wird für 5 Tage weiterkultiviert, anschließend mit 200 ml salzsaurem Ethanol (1,7 ml HCI konz./1 I Ethanol) 2 Stunden lang bei 60 ° C extrahiert.

[14] = tested on: Zellsuspensionskultur von Eschscholtzia californica; test: cells; details: 120 h, read-out: Steigerung der Benzophenanthridin-Produktion
Source text: as §3, §4

[15] = tested on: Rauwolfia canescens Zellkultur; test: Induction of new indole alkaloids in cell culture; assay type: cell-based; details: 200 µmol/l; cultivated 6 further days; number of new alkaloids
Source text: as §1
Einer 4 Tage alten Rauwolfia canescens Zellkultur (LS-Medium) wird 3-Hydroxyjasmonat zu einer Endkonzentration von 200 µmol/l zugesetzt. Die Kultur wird 6 Tage weiterkultiviert und mit einer entsprechenden Kontrolle, der kein 3-Hydroxyjasmonat zugesetzt wurde, verglichen. Dabei zeigt sich, daß in dieser Zellkultur 6 Indolalkaloide gebildet werden, die in der Kontrollkultur nicht vorkommen.

[16] = tested on: Kultur von Rauwolfia serpentina; test: Elicitation of vallesiachotamine in cell culture; assay type: cell-based; details: 200 umol/1, cultivated 4 further days
Procedure: as §1
Eine Kultur von Rauwolfia serpentina, in LS-Medium 3 Tage gewachsen, wird zu einer Endkonzentration von 200 umol/1 mit Jasmonsäure versetzt und 4 Tage weiterkultiviert. Der methanolische Extrakt des Gewebes enthält eine 8-fache Vallesiacotamin-Konzentration gegenüber der Kontrolle. Der Absolutwert ist 70 mg/I Medium.

With 3-Hydroxyjasmonsäure the “Lettucenin A Konzentration” value [1] was “ca. 30 mg/I”.

With Jasmonatglukosid the “Rutacridon-Gehalt gegenüber der Kontrolle” value [2] was 18 -fach.

For 2',3'-Dihydrojasmonat, the “Zuwachs an Alizarin gegenüber der Kontrolle” value [3] was “ca. 40 -fach”.

`CC/C=C\C[C@H]1C(=O)CC[C@@H]1CC(=O)O` [Jasmonat] was tested, and the Lignane gesteigert [4] was 2,5 -fach, the Steigerung [5] was 14 -fach and the “Hyoscyamin/Scopolamin Steigerung gegenüber der Kontrolle” value [6] was 12 -fach. The “Emetin Steigerung gegenüber der Kontrolle” value [7] was 7,5 -fach, the “Gossipol gesteigert gegenüber der Kontrolle” value [8] was 10 -fach and the “Cardenoloide, gesteigerte Konzentration gegenüber der Kontrolle” value [9] was 2 -fach. The “Colchicin Steigerung gegenüber der Kontrolle” value [10] was 8 -fach.

`CCC=CCC1C(=O)CCC1CC(=O)OC` (stereo not drawn) [Methyljasmonat] was tested, and the “spezifische m-RNA-Menge” value ([11]; in 2 hours after addition, versus control culture) was “verdoppelt”, the “spezifische m-RNA-Menge” value ([11]; in 10 hours after addition, then decreases again) was “weiter ansteigt” and the fold induction at 250 µM [12] was about 30. The “Gesamtausbeute der Kultur, Benzophenanthridine pro Liter Kulturmedium” value [13] was 300 mg and the fold induction at 20 µM [14] was 15.

With 3-Hydroxyjasmonat the “Indolalkaloide gebildet, die in der Kontrollkultur nicht vorkommen” value [15] was 6.

With `CCC=CCC1C(=O)CCC1CC(=O)O` (stereo not drawn) [Jasmonsäure] the “Vallesiacotamin-Konzentration, Absolutwert” value [16] was 70 mg/I Medium and the fold induction at 200 µM ([16]; Rauvolfia serpentina, 96 h, methanolic extract of the tissue, read-out: Vallesiacotamin-Konzentration gegenüber der Kontrolle) was 8.
